Measured values as given in patent US12427134B2, “Methods of reducing the risk of cardiovascular events in a subject with atrial fibrillation and/or atrial flutter” (priority 2019, dated 2025).

Test system: hypertriglyceridemic patients with cardiovascular disease or at high risk for cardiovascular disease
Experiment: REDUCE-IT: time to first occurrence of adjudicated cardiovascular endpoint events (primary, key secondary, other secondary, tertiary; sensitivity and landmark analyses)
Format: in vivo
From the text: The following study, also referred to as the REDUCE-IT clinical trial, was a large cardiovascular (CV) outcome trial designed to assess CV risk reduction benefit of AMR101 treatment (commercially known as VASCEPA®) versus placebo on the 5-point primary composite endpoint: CV death, non-fatal stroke, non-fatal myocardial infarction (MI), coronary revascularizations, or unstable angina requiring hospitalization.
A multi-center, prospective, randomized, double-blind, placebo-controlled, parallel-group study was performed to evaluate the effect of AMR101 (4 g per day) on cardiovascular health and mortality in hypertriglyceridemic patients with cardiovascular disease or at high risk for cardiovascular disease. The intended expanded indication of the study was treatment with AMR101 as an add-on to statin therapy to reduce the risk of cardiovascular events in patients with clinical cardiovascular disease or with multiple risk factors for cardiovascular disease.
The primary objective of this study was, in patients at LDL-C goal while on statin therapy, with established cardiovascular disease (CVD) or at high risk for CVD, and hypertriglyceridemia (e.g., fasting triglycerides (TG) ≥200 mg/dL and <500 mg/dL), to evaluate the effect of AMR101 4 g daily on time from randomization to first occurrence of any component of the composite of the following major CV events: CV death; nonfatal MI; (including silent MI; electrocardiograms (ECGs) were performed annually for the detection of silent MIs); nonfatal stroke; coronary revascularization; and unstable angina determined to be caused by myocardial ischemia by invasive/non-invasive testing and requiring emergent hospitalization.
The key secondary objective of this study was to evaluate the effect of AMR101 4 g daily on the time from randomization to the first occurrence of the composite of following major CV events: CV death, nonfatal MI (including silent MI), and nonfatal stroke.
Other secondary objectives for this study were to evaluate the effect of therapy on time from randomization to the first occurrence of the following individual or composite endpoints: composite of CV death or nonfatal MI (including silent MI); fatal or nonfatal MI (including silent MI); non-elective coronary revascularization represented as the composite of emergent or urgent classifications; CV death; unstable angina determined to be caused by myocardial ischemia by invasive/non-invasive testing and requiring emergent hospitalization; fatal or nonfatal stroke; composite of total mortality, nonfatal MI (including silent MI), or nonfatal stroke; and total mortality.
The key tertiary objectives for this study were to evaluate the effect of AMR101 4 g daily from baseline and percent change from baseline in fasting triglycerides and LDL-C. […]

[1] = ITT population, listed as Icosapent Ethyl
[2] = clinically adjudicated arrhythmia sequelae, safety population
[3] = clinically adjudicated arrhythmia sequelae, safety population, vs placebo
[4] = determined programmatically, ITT
[5] = excludes patients with Type 1 or Type 2 diabetes at baseline, ITT
[6] = tertiary endpoint, first occurrence, ITT
[7] = vs placebo, listed as Icosapent Ethyl
[8] = vs placebo, listed as icosapent ethyl

CC/C=C\C/C=C\C/C=C\C/C=C\C/C=C\CCCC(=O)OCC [AMR101, eicosapentaenoic acid ethyl ester]
New Heart Failure (newly emergent CHF), HR (95% CI) [1]: 0.95 (0.77, 1.17) | New Heart Failure (newly emergent CHF), patients with event [1]: (4.1%) | New Heart Failure Requiring Hospitalization, HR (95% CI) [1]: 0.97 (0.77, 1.22) | New Heart Failure Requiring Hospitalization, patients with event [1]: (3.4%) | New Onset Hypertension, HR (95% CI) [1]: 0.86 (0.41-1.80) | Peripheral Artery Disease, HR (95% CI) [1]: 0.97 (0.78-1.21) | Peripheral Artery Disease, patients with event [1]: (3.8) % | Sudden Cardiac Death, HR (95% CI) [1]: 0.69 (0.50, 0.96) | Sudden Cardiac Death, patients with event [1]: (1.5%) | Transient Ischemic Attack, patients with event [1]: (1.6%) | Urgent Revascularization, HR (95% CI) [1]: 0.66 (0.54, 0.79) | Urgent Revascularization, patients with event [1]: (4.4%) | Deaths with undetermined cause (Safety population): 36 (0.9) n (%) | Non-CV deaths (Safety population): 100 (2.4) n (%) | Total mortality (Safety population, N = 4089): 274 (6.7) n (%) | Coronary Revascularization, events (%) (clinically adjudicated arrhythmia sequelae, composite of emergent, urgent, elective, salvage, safety population): (9.2%) | Any Myocardial Infarction, events (%) [2]: (6.1%) | Any Stroke, events (%) [2]: (2.4%) | Cardiac Arrest, events (%) [2]: (0.5%) | Carotid Revascularization, events (%) [2]: (0.8%) | Sudden Cardiac Death, events (%) [2]: (1.5%) | Transient Ischemic Attack, events (%) [2]: (1.6%) | Any Myocardial Infarction, HR (95% CI) [3]: 0.69 (0.58 to 0.81) | Any Stroke, HR (95% CI) [3]: 0.72 (0.55 to 0.93) | Cardiac Arrest, HR (95% CI) [3]: 0.52 (0.31 to 0.86) | Sudden Cardiac Death, HR (95% CI) [3]: 0.69 (0.50 to 0.96) | Transient Ischemic Attack, HR (95% CI) [3]: 1.32 (0.91 to 1.92) | Coronary Revascularization, HR (95% CI) Icosapent Ethyl/Placebo (composite of emergent, urgent, elective, salvage, ITT): 0.66 (0.58-0.76) | Coronary Revascularization, patients with event (%) (composite of emergent, urgent, elective, salvage, first occurrence, ITT): (9.2) % | New Onset Hypertension, HR (95% CI) Icosapent Ethyl/Placebo [4]: 0.86 (0.41-1.80) | New Onset Hypertension, patients with event (%) [4]: (0.3) % | New Onset Type 2 Diabetes, HR (95% CI) Icosapent Ethyl/Placebo [5]: 1.04 (0.73-1.47) | New Onset Type 2 Diabetes, patients with event (%) [5]: (3.8) % | Primary endpoint, risk reduction (post hoc analysis excluding patients with diarrhea): 25% | Cardiac Arrest, HR (95% CI) Icosapent Ethyl/Placebo (tertiary endpoint, ITT): 0.52 (0.31-0.86) | Elective Revascularization, HR (95% CI) Icosapent Ethyl/Placebo (tertiary endpoint, ITT): 0.68 (0.57-0.82) | Emergent Revascularization, HR (95% CI) Icosapent Ethyl/Placebo (tertiary endpoint, ITT): 0.62 (0.42-0.92) | Ischemic Stroke, HR (95% CI) Icosapent Ethyl/Placebo (tertiary endpoint, ITT): 0.64 (0.49-0.85) | Newly Emergent CHF Requiring Hospitalization, HR (95% CI) Icosapent Ethyl/Placebo (tertiary endpoint, ITT): 0.97 (0.77-1.22) | Newly Emergent CHF, HR (95% CI) Icosapent Ethyl/Placebo (tertiary endpoint, ITT): 0.95 (0.77-1.17) | Peripheral Artery Disease, HR (95% CI) Icosapent Ethyl/Placebo (tertiary endpoint, ITT): 0.97 (0.78-1.21) | Salvage Revascularization, HR (95% CI) Icosapent Ethyl/Placebo (tertiary endpoint, ITT): 0.00 (0.00-0.00) | Sudden Cardiac Death, HR (95% CI) Icosapent Ethyl/Placebo (tertiary endpoint, ITT): 0.69 (0.50-0.96) | Transient Ischemic Attack, HR (95% CI) Icosapent Ethyl/Placebo (tertiary endpoint, ITT): 1.32 (0.91-1.92) | Urgent Revascularization, HR (95% CI) Icosapent Ethyl/Placebo (tertiary endpoint, ITT): 0.66 (0.54-0.79) | Amputation for PVD, patients with event (%) [6]: (0.5) % | Cardiac Arrest, patients with event (%) [6]: (0.5) % | Cardiac Arrhythmia Requiring Hospitalization of ≥24 Hours, patients with event (%) [6]: (4.6) % | Carotid Revascularization, patients with event (%) [6]: (0.8) % | Elective Revascularization, patients with event (%) [6]: (4.7) % | Emergent Revascularization, patients with event (%) [6]: (1.0) % | Hemorrhagic Stroke, patients with event (%) [6]: (0.3) % | Ischemic Stroke, patients with event (%) [6]: (2.0) % | Newly Emergent CHF Requiring Hospitalization, patients with event (%) [6]: (3.4) % | Newly Emergent CHF, patients with event (%) [6]: (4.1) % | Peripheral Artery Disease, patients with event (%) [6]: (3.8) % | Salvage Revascularization, patients with event (%) [6]: (0.0) % | Sudden Cardiac Death, patients with event (%) [6]: (1.5) % | Transient Ischemic Attack, patients with event (%) [6]: (1.6) % | Urgent Revascularization, patients with event (%) [6]: (4.4) % | Total mortality utilizing known vital status data (through 31 May 2018, assessed as of database lock): 7.3% | Key secondary composite endpoint, relative risk reduction (vs placebo): 26.5% | Primary composite endpoint, relative risk reduction (vs placebo): 24.8% | Key secondary composite endpoint, relative risk reduction [7]: 26% | Primary composite endpoint, relative risk reduction [7]: 25% | Key secondary composite endpoint, relative risk reduction [8]: 26% | Primary composite endpoint, relative risk reduction [8]: 25%
